Measurements from PubChem BioAssay (NCI).
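Step 1: Grow cells in 96-well plates. Step 2: Expose to compound for 48 hours at 5 concentrations. Step 3: Interpolate endpoints linearly; if unreached, use highest concentration. TGI marks complete inhibition of growth.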

Experiments:
Experiment in all cases: DTP human tumour cell line panel, 48 h
786-0 renal = system: 786-0 renal
A498 renal = system: A498 renal
A549 NSCLC = system: A549 NSCLC
CAKI-1 renal = system: CAKI-1 renal
EKVX NSCLC = system: EKVX NSCLC
MDA-MB-231 breast = system: MDA-MB-231 breast
RXF 393 renal = system: RXF 393 renal
SF-295 CNS = system: SF-295 CNS
SR leukemia = system: SR leukemia
UACC-257 melanoma = system: UACC-257 melanoma
UO-31 renal = system: UO-31 renal

SMILES	TGI (786-0 renal) [µM]	TGI (A498 renal) [µM]	TGI (A549 NSCLC) [µM]	TGI (CAKI-1 renal) [µM]	TGI (EKVX NSCLC) [µM]	TGI (MDA-MB-231 breast) [µM]	TGI (RXF 393 renal) [µM]	TGI (SF-295 CNS) [µM]	TGI (SR leukemia) [µM]	TGI (UACC-257 melanoma) [µM]	TGI (UO-31 renal) [µM]
O=C(/C=C/c1ccc(O)c(O)c1)c1cc(O)cc(O)c1	26.6	33.4	> 100	> 100	57.4	28.8	22.8	40.1	> 100	23	22.6
O=c1oc2cc(O)ccc2c(O)c1C(c1cccnc1)c1c(O)c2ccc(O)cc2oc1=O	> 100	> 100	> 100	> 100	> 100	> 100	> 100	> 100	> 100	> 100	> 100
CN(C)c1ccccc1CN1CCCN(Cc2ccccc2N(C)C)C1c1ccncc1	32.2	24.8	40.7	34.6	38	51.5	22.4	29.8	21.7	7.98	13.9
CCOC(=O)NC(NC1=NCCS1)(C(=O)OCC)C(F)(F)F (stereo not drawn)	> 100	> 100	> 100	> 100	> 100	> 100	> 100	> 100	> 100	> 100	> 100
Cn1c2ccccc2c2c(=O)[nH]c(=O)[nH]c21	> 100	> 100	> 100	> 100	> 100	> 100	> 100	> 100	> 100	> 100	> 100
CSCCCNC(=O)c1csc(-c2csc(C(CNC(=O)OC(C)(C)C)CNC(=O)OC(C)(C)C)n2)n1	> 100	> 100		> 100	> 100	> 100	> 100	> 100	70.1	> 100	> 100
COc1ccc2sc(-n3nc4ccccc4c3Nc3nc4ccc(OC)cc4s3)nc2c1	3.87	5.63	18.5	6.89	19.3	10.9	43.3	12.8	> 100	19.5	34
CCN1CCN(c2nc3ccc([N+](=O)[O-])cc3nc2C(=O)c2ccccc2)CC1	34.2	73.2	33.7	30.5	29.6	28.7	32.8	30.3	31.8	36.7	25.2
N#Cc1c(N)sc2c1-c1ccccc1OC2		> 100	> 100		31	> 100	41.3		47.9	> 100	70
COC(=O)/C=C/c1ccc2c(c1)CC1(C2)Cc2cc3c(cc2C1=O)CCC3 (stereo not drawn)	68.7	> 100	> 100	> 100	> 100	> 100	84.9	> 100	> 100	> 100	> 100
O=C(/C=C/c1ccc(/C=C/C(=O)c2ccc(O)cc2)cc1)c1ccc(O)cc1	> 100	> 100	> 100	> 100	> 100	> 100	> 100	> 100	> 100	> 100	> 100
CCOC(=O)c1ccc(C(=O)/C(C(C)=O)=C2\CCCN2C)n1C	> 100	> 100	> 100	> 100	> 100	> 100	> 100	> 100	98.9	> 100	> 100
Cc1cc(Cc2c(F)c(F)c(C(c3cc(C)no3)c3c(F)c(F)c(F)c(F)c3F)c(F)c2F)on1 (stereo not drawn)	> 100	> 100	> 100	> 100	> 100	> 100	8.08	> 100	> 100	> 100	> 100
Cc1cc(NC[C@H](O)[C@H](O)[C@H](O)CO)c(Sc2cc(=O)[nH]c(=O)[nH]2)cc1C	> 62.5	> 62.5	> 62.5	> 62.5	> 62.5	> 62.5	> 62.5	> 62.5	> 62.5	> 62.5	> 62.5
O=C1[C@@H]2[C@@H](c3ccccc3)[C@]2(Cl)C(=O)[C@H]2[C@H](c3ccccc3)[C@@]12Cl	> 100	> 100	> 100	> 100	> 100	> 100	> 100	> 100	> 100	> 100	> 100
CCCCCCCCCCCCOP(=O)(O)OCC(N)C(=O)O (stereo not drawn)	> 100	75.8	> 100	95.8	> 100	58	> 100	41.7	90	> 100	28.9
CC(C)(C)c1cc(C2=NN(c3ccccc3)C(c3ccccc3)C2)cc(C(C)(C)C)c1O (stereo not drawn)	> 100	> 100	> 100	> 100	> 100	> 100	> 100	> 100	> 100	> 100	> 100
CCCCCCOP(=O)(OCCCCCC)C(NC(=O)OCC)(C(F)(F)F)C(F)(F)F		> 100	> 100	> 100	> 100	56.6	76.9	> 100	> 100		72.2
O=C(CCCCCCC(=O)Nc1cccnc1)NO	> 100	> 100	> 100	> 100	> 100	> 100	31	> 100	> 100	87.7	> 100
